We go through 18 compounds from paper PMC6017481, “Design, Synthesis, and Biological Evaluation of 2-(Benzylamino-2-Hydroxyalkyl)Isoindoline-1,3-Diones Derivatives as Potential Disease-Modifying Multifunctional Anti-Alzheimer Agents” (Molecules : A Journal of Synthetic Chemistry and Natural …, 2018).

Read-outs that look alike come from different tables or passages of the source.

In experiment [1] the target is T1, eeAChE (AChE from Electrophorus electricus) (Electrophorus electricus, UniProt O42275).
T1 construct: purchased Sigma-Aldrich
T1 sequence (O42275 24-633): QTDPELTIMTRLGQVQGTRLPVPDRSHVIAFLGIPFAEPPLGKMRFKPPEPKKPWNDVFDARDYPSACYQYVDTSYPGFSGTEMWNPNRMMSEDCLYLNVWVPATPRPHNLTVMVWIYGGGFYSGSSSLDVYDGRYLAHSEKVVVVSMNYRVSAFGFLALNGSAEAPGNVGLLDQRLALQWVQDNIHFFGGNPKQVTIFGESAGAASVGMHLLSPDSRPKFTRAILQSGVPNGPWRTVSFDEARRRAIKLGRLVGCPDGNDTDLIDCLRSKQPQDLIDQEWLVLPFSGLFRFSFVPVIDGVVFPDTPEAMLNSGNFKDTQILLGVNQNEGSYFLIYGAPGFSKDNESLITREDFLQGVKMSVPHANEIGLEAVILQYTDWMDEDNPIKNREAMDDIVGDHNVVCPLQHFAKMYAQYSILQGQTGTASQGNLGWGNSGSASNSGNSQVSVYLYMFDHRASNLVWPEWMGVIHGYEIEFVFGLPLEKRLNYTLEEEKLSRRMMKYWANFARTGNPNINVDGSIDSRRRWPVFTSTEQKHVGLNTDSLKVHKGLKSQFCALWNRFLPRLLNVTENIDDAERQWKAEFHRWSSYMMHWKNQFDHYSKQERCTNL
In words: biochemical. The note with it: for inhibition at 10 µM: at 10 μM inhibitor concentration, mean ± SD, read-out: eeAChE % Inh.; for IC50: AChE from electric eel, mean ± SEM, at least three experiments.

Experiment [2] concerns the target eqBuChE (BuChE from equine serum) (Equus caballus, UniProt P81908). The experiment in a line: biochemical. The settings on record: for inhibition at 10 µM: at 10 μM inhibitor concentration, mean ± SD, read-out: eqBuChE % Inh.
The target of experiment [3] is T2, human recombinant BACE-1 (hBACE-1) (Homo sapiens, UniProt P56817).
T2 construct: purchased PanVera BACE-1 FRET Assay Kit, bought from Life Technologies Polska Sp. z o.o; host or cells: baculovirus expression
T2 sequence (P56817 46-501): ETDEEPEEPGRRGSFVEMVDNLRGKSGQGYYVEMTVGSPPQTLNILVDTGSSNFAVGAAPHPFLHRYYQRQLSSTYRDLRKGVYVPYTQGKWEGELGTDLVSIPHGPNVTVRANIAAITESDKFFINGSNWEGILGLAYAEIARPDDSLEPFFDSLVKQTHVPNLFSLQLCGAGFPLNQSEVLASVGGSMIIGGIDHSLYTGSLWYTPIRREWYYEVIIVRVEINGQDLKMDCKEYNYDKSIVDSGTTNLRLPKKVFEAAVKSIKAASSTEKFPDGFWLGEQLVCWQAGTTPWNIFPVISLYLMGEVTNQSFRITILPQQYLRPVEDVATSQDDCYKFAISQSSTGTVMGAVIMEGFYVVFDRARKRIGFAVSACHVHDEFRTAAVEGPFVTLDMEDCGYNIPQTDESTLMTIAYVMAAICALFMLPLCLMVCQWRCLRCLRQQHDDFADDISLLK
The experiment in a line: BACE-1 FRET assay (PanVera kit). The note with it: at 50 μM inhibitor concentration; mean ± SD; read-out: hBACE-1 % Inh. The experiment is classed as biochemical.

The target of experiment [4] is T3, Aβ1–42 peptide aggregation (Homo sapiens, UniProt P05067).
T3 construct: Recombinant human HFIP-pretreated Aβ1–42 peptide; purchased Merck Millipore, Darmstadt, Germany
T3 sequence (P05067 672-713 limits assumed): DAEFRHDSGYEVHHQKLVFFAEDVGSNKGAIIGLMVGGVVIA
The experiment in a line: Thioflavin T-based fluorometric assay of Aβ aggregation. The experiment is classed as biochemical. The note with it: read-out: Aβ-Aggr. % Inh.

The next experiment concerns human AChE. The arrangement: method as in PMID 25621991. The settings on record: cited from earlier work.
The subject of the next experiment is Aβ aggregation. Also noted: method as in PMID 25621991. The note with it: at 10 μM; cited from earlier work.
For the next experiment, the system named is Aβ toxicity. Also noted: method as in PMID 25621991. The note with it: at 1 μM and 3 μM; cited from earlier work.
The mark [5] stands for this setting: at 10 μM inhibitor concentration, 1.5 μM Aβ1–42, mean ± SD.

eqBuChE (BuChE from equine serum), sequence (P81908 whole entry): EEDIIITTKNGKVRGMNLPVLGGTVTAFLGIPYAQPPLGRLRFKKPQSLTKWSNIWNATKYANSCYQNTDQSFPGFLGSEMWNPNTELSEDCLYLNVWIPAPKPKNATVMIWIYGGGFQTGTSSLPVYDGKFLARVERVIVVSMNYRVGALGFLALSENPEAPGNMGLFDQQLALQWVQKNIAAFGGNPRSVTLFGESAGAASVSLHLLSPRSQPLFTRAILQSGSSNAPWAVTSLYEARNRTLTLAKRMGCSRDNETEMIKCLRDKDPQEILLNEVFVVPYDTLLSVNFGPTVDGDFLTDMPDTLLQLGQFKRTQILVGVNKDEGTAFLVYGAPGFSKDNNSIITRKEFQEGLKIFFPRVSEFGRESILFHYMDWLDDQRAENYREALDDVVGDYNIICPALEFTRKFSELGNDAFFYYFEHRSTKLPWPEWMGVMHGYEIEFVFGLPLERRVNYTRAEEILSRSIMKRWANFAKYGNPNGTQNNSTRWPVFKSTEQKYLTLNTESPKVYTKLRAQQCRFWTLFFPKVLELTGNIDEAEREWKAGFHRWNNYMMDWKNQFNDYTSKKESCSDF

As to `O=C1c2ccccc2C(=O)N1CC(O)CNCc1ccccc1` (centres unmarked) [Compound 1, 2-(3-(Benzylamino)-2-hydroxypropyl)isoindoline-1,3-dione], the inhibition at 10 µM was 11.5% in experiment [1], 14.1% in experiment [2] and less than 10% in experiment [4] (setting [5]). Moreover, in experiment [3], the inhibition at 50 µM stood at 37.3%.
`O=C1c2ccccc2C(=O)N1CC(O)CNCc1ccccc1F` (centres unmarked) [Compound 2, 2-(3-((2-Fluorobenzyl)amino)-2-hydroxypropyl)isoindoline-1,3-dione]: the inhibition at 10 µM was determined as 28.1% in experiment [1], 19.5% in experiment [2] and 21.1% in experiment [4] (setting [5]). For the same compound, the inhibition at 50 µM in experiment [3] turned out to be 39.6%.
As to `O=C1c2ccccc2C(=O)N1CC(O)CNCc1ccccc1C(F)(F)F` (centres unmarked) [Compound 3, 2-(2-Hydroxy-3-((2-(trifluoromethyl)benzyl)amino)propyl)isoindoline-1,3-dione], the inhibition at 10 µM in experiment [1] is 11.8%; in experiment [2], less than 10%; in experiment [4] (setting [5]), less than 10%. In experiment [3], the inhibition at 50 µM came to 41.8%.
`O=C1c2ccccc2C(=O)N1CC(O)CNCc1cccc(Cl)c1` (centres unmarked) [Compound 4, 2-(3-((3-Chlorobenzyl)amino)-2-hydroxypropyl)isoindoline-1,3-dione]: the inhibition at 10 µM was less than 10% in experiment [1], 24.1% in experiment [2] and less than 10% in experiment [4] (setting [5]). Also, in experiment [3], the inhibition at 50 µM is 34.1%.
Regarding `COc1ccccc1CNCC(O)CN1C(=O)c2ccccc2C1=O` (centres unmarked) [Compound 5, 2-(2-Hydroxy-3-((2-methoxybenzyl)amino)propyl)isoindoline-1,3-dione], the inhibition at 10 µM in experiment [1] was less than 10%; in experiment [4] (setting [5]), 19.9%. The half-maximal inhibitory concentration (IC50) in experiment [2] (BuChE from horse serum, mean ± SEM, at least three experiments) worked out at 7.86 ± 0.29 µM. Besides, in experiment [3], the inhibition at 50 µM was found to be 39.2%.
For `Cc1ccc(CNCC(O)CN2C(=O)c3ccccc3C2=O)cc1` (centres unmarked) [Compound 6, 2-(2-Hydroxy-3-((4-methylbenzyl)amino)propyl)isoindoline-1,3-dione], the inhibition at 10 µM in experiment [1] was less than 10%; in experiment [2], 11.6%; in experiment [4] (setting [5]), less than 10%. Moreover, in experiment [3], the inhibition at 50 µM was 45%.
In the case of `COc1ccc(CNCC(O)CN2C(=O)c3ccccc3C2=O)cc1` (centres unmarked) [Compound 7, 2-(2-Hydroxy-3-((4-methoxybenzyl)amino)propyl)isoindoline-1,3-dione], the inhibition at 10 µM is less than 10% in experiment [1], 19.1% in experiment [2] and less than 10% in experiment [4] (setting [5]). In addition, the inhibition at 50 µM in experiment [3] worked out at 35.1%.
In the case of `O=C1c2ccccc2C(=O)N1CC(O)CNCc1ccc(Cl)cc1Cl` (centres unmarked) [Compound 8, 2-(3-((2,4-Dichlorobenzyl)amino)-2-hydroxypropyl)isoindoline-1,3-dione], the figures for the inhibition at 10 µM in experiment [1], in experiment [2] and in experiment [4] (setting [5]) were less than 10%, 21.7% and less than 10%, respectively. The inhibition at 50 µM in experiment [3] stood at 37.2%.
Consider `O=C1c2ccccc2C(=O)N1CCC(O)CNCc1ccccc1` (centres unmarked) [Compound 9, 2-(4-(Benzylamino)-3-hydroxybutyl)isoindoline-1,3-dione], for which the inhibition at 10 µM in experiment [1], in experiment [2] and in experiment [4] (setting [5]) was less than 10% throughout. Further, the inhibition at 50 µM in experiment [3] was less than 10%.
`COc1ccccc1CNCC(O)CCN1C(=O)c2ccccc2C1=O` (centres unmarked) [Compound 10, 2-(3-Hydroxy-4-((2-methoxybenzyl)amino)butyl)isoindoline-1,3-dione]: the inhibition at 10 µM in experiment [1] was 32.7%; in experiment [2] it was 17.8%; in experiment [4] (setting [5]), less than 10%. In addition, the inhibition at 50 µM in experiment [3] was determined as 24.4%.
The like results for `COc1ccc(CNCC(O)CCN2C(=O)c3ccccc3C2=O)cc1` (centres unmarked) [Compound 11, 2-(3-Hydroxy-4-((4-methoxybenzyl)amino)butyl)isoindoline-1,3-dione] were, in that order, less than 10%, less than 10%, less than 10% and 34.8%.
As to `O=C1c2ccccc2C(=O)N1CCCC(O)CNCc1ccccc1` (centres unmarked) [Compound 12, 2-(5-(Benzylamino)-4-hydroxypentyl)isoindoline-1,3-dione], in experiment [1], the IC50 worked out at 3.32 ± 0.15 µM. The inhibition at 10 µM was 14.1% in experiment [2] and 24.9% in experiment [4] (setting [5]). Besides, the inhibition at 50 µM in experiment [3] came out at 43.7%.
The like results for `COc1ccccc1CNCC(O)CCCN1C(=O)c2ccccc2C1=O` (centres unmarked) [Compound 13, 2-(4-Hydroxy-5-((2-methoxybenzyl)amino)pentyl)isoindoline-1,3-dione] were, in that order, 11.1 ± 0.49 µM, 26.2%, less than 10% and 37.1%.
Compound `O=C1c2ccccc2C(=O)N1CCCCC(O)CNCc1ccccc1` (centres unmarked) [Compound 14, 2-(6-(Benzylamino)-5-hydroxyhexyl)isoindoline-1,3-dione] yielded an IC50 in experiment [1] of 2.13 ± 0.07 µM. The inhibition at 10 µM in experiment [2] is 36%; in experiment [4] (setting [5]) it was less than 10%. Also, the inhibition at 50 µM in experiment [3] is 42.1%.
On the same counts, the results for `COc1ccccc1CNCC(O)CCCCN1C(=O)c2ccccc2C1=O` (centres unmarked) [Compound 15, 2-(5-Hydroxy-6-((2-methoxybenzyl)amino)hexyl)isoindoline-1,3-dione] are 1.95 ± 0.06 µM, 36%, less than 10% and 15.7%.
With `O=C1c2ccccc2C(=O)N1CCCCCNCc1ccc(F)cc1` [Compound III, 2-(5-(4-flurobenzylamino)pentyl)isoindoline-1,3-dione], the IC50 in the experiment with human AChE was 0.268 µM. Moreover, the anti-Aβ aggregation activity with Aβ aggregation is 66%. In the experiment with Aβ toxicity, the “neuroprotective effect against Aβ toxicity” value is “neuroprotective effect”.
On to `COc1cc2c(cc1OC)C(=O)C(CC1CCN(Cc3ccccc3)CC1)C2` (centres unmarked) [Donepezil, reference compound], for which, in experiment [4], the inhibition at 10 µM worked out at 13.8%.
As to `Oc1ccc(/C=C/c2cc(O)cc(O)c2)cc1` [Resveratrol, reference compound], the inhibition at 10 µM in experiment [4] (setting [5]) amounted to 78.5%.
